Data from the supplement of paper PMC10307832.

Tests used:
Assay in all cases: relative viability (nuclei count vs DMSO), 5 days (fraction); higher = more cells survive
LXF-289 = system: LXF-289
Summary of the method: (§1)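 Lung cancer cell lines in 1536-well plates got either a single drug or a fixed anchor-drug dose together with five library-drug doses (not always all listed) in √10 steps, by pin tool, on the day after seeding. Nuclei were counted after 5 days, and relative viability is the treated-to-vehicle ratio of nuclei counts. Values are medians of duplicate plates.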

NCI-H1793 = system: NCI-H1793
Summary of the method: as §1

NCI-H322M = system: NCI-H322M
Summary of the method: as §1

HCC-827 = system: HCC-827
Summary of the method: as §1

CAL-12T = system: CAL-12T
Summary of the method: as §1

NCI-H1650 = system: NCI-H1650
Summary of the method: as §1

201T = system: 201T
Summary of the method: as §1

NCI-H2405 = system: NCI-H2405
Summary of the method: as §1

BEN = system: BEN
Summary of the method: as §1

HCC-44 = system: HCC-44
Summary of the method: as §1

NCI-H2087 = system: NCI-H2087
Summary of the method: as §1

NCI-H1437 = system: NCI-H1437
Summary of the method: as §1

NCI-H1355 = system: NCI-H1355
Summary of the method: as §1

NCI-H3122 = system: NCI-H3122
Summary of the method: as §1

NCI-H1395 = system: NCI-H1395
Summary of the method: as §1

NCI-H647 = system: NCI-H647
Summary of the method: as §1

LCLC-103H = system: LCLC-103H
Summary of the method: as §1

SK-LU-1 = system: SK-LU-1
Summary of the method: as §1

NCI-H2023 = system: NCI-H2023
Summary of the method: as §1

LCLC-97TM1 = system: LCLC-97TM1
Summary of the method: as §1

NCI-H2228 = system: NCI-H2228
Summary of the method: as §1

NCI-H727 = system: NCI-H727
Summary of the method: as §1

HOP-62 = system: HOP-62
Summary of the method: as §1

RERF-LC-KJ = system: RERF-LC-KJ
Summary of the method: as §1

SMILES: CC(C)Oc1cc(Nc2nc(N[C@@H](C)c3ccc(F)cn3)ncc2Cl)n[nH]1 [AZ23] + O=C(CCCCCCC(=O)Nc1ccccc1)NO [Vorinostat] (partner 1 µM)
- relative viability (LXF-289; first compound 0.01 µM): 0.949
- relative viability (LXF-289; first compound 0.03162 µM): 0.776
- relative viability (LXF-289; first compound 0.3162 µM): 0.737
- relative viability (NCI-H1793; first compound 0.01 µM): 0.679
- relative viability (NCI-H1793; first compound 0.03162 µM): 0.811
- relative viability (NCI-H1793; first compound 0.3162 µM): 0.892
- relative viability (NCI-H322M; first compound 0.01 µM): 0.674
- relative viability (NCI-H322M; first compound 0.03162 µM): 0.881
- relative viability (NCI-H322M; first compound 0.3162 µM): 0.93
- relative viability (HCC-827; first compound 0.01 µM): 0.964
- relative viability (HCC-827; first compound 0.03162 µM): 0.866
- relative viability (HCC-827; first compound 0.3162 µM): 0.9
- relative viability (CAL-12T; first compound 0.03162 µM): 1.03
- relative viability (CAL-12T; first compound 0.3162 µM): 0.88
- relative viability (NCI-H1650; first compound 0.01 µM): 0.441
- relative viability (NCI-H1650; first compound 0.03162 µM): 1.16
- relative viability (NCI-H1650; first compound 0.3162 µM): 0.737
- relative viability (201T; first compound 0.01 µM): 1.05
- relative viability (201T; first compound 0.03162 µM): 1.09
- relative viability (201T; first compound 0.3162 µM): 1.08
- relative viability (NCI-H2405; first compound 0.01 µM): 0.922
- relative viability (NCI-H2405; first compound 0.03162 µM): 1.13
- relative viability (NCI-H2405; first compound 0.3162 µM): 1.01
- relative viability (BEN; first compound 0.01 µM): 0.599
- relative viability (BEN; first compound 0.03162 µM): 0.659
- relative viability (BEN; first compound 0.3162 µM): 0.597
- relative viability (HCC-44; first compound 0.01 µM): 1.14
- relative viability (HCC-44; first compound 0.03162 µM): 1.16
- relative viability (HCC-44; first compound 0.3162 µM): 1.09
- relative viability (NCI-H2087; first compound 0.01 µM): 0.969
- relative viability (NCI-H2087; first compound 0.03162 µM): 0.995
- relative viability (NCI-H2087; first compound 0.3162 µM): 0.668
- relative viability (NCI-H1437; first compound 0.01 µM): 0.981
- relative viability (NCI-H1437; first compound 0.03162 µM): 0.929
- relative viability (NCI-H1437; first compound 0.3162 µM): 0.809
- relative viability (NCI-H1355; first compound 0.01 µM): 0.672
- relative viability (NCI-H1355; first compound 0.03162 µM): 0.715
- relative viability (NCI-H1355; first compound 0.3162 µM): 0.633
- relative viability (NCI-H3122; first compound 0.01 µM): 1.45
- relative viability (NCI-H3122; first compound 0.03162 µM): 1.05
- relative viability (NCI-H3122; first compound 0.3162 µM): 1.03
- relative viability (NCI-H1395; first compound 0.03162 µM): 0.685
- relative viability (NCI-H1395; first compound 0.3162 µM): 0.799
- relative viability (NCI-H647; first compound 0.01 µM): 0.935
- relative viability (NCI-H647; first compound 0.03162 µM): 0.497
- relative viability (NCI-H647; first compound 0.3162 µM): 0.591
- relative viability (LCLC-103H; first compound 0.01 µM): 0.76
- relative viability (LCLC-103H; first compound 0.03162 µM): 0.85
- relative viability (LCLC-103H; first compound 0.3162 µM): 0.769
- relative viability (SK-LU-1; first compound 0.03162 µM): 0.801
- relative viability (SK-LU-1; first compound 0.3162 µM): 0.759
- relative viability (NCI-H2023; first compound 0.03162 µM): 0.605
- relative viability (NCI-H2023; first compound 0.3162 µM): 0.861
- relative viability (LCLC-97TM1; first compound 0.01 µM): 0.582
- relative viability (LCLC-97TM1; first compound 0.03162 µM): 0.885
- relative viability (LCLC-97TM1; first compound 0.3162 µM): 0.396
- relative viability (NCI-H2228; first compound 0.01 µM): 0.72
- relative viability (NCI-H2228; first compound 0.03162 µM): 0.585
- relative viability (NCI-H2228; first compound 0.3162 µM): 0.628
- relative viability (NCI-H727; first compound 0.01 µM): 1.07
- relative viability (NCI-H727; first compound 0.03162 µM): 1.13
- relative viability (NCI-H727; first compound 0.3162 µM): 1.37
- relative viability (HOP-62; first compound 0.01 µM): 0.527
- relative viability (HOP-62; first compound 0.03162 µM): 0.765
- relative viability (HOP-62; first compound 0.3162 µM): 0.733
- relative viability (RERF-LC-KJ; first compound 0.01 µM): 0.711
- relative viability (RERF-LC-KJ; first compound 0.03162 µM): 0.704
- relative viability (RERF-LC-KJ; first compound 0.3162 µM): 0.675
